Data as given in US11246961B2, “Engineered scaffolds for vascularized tissue repair” (The Regents of the University of California, priority 2016, dated 2022).
Ends that are not written are not given here.

How the values were obtained:
[1] = test system: THP-1 monocytes; assay: attachment assay on ligand treated culture surfaces, THP-1 monocytes; type: cell-based; conditions: 16 hours
Description: (§1) Ligands LXW7, LXY30, and LLP2A were synthesized as in U.S. Pat. No. 9,073,974. Biotinylated LXW7 (LXW7-bio) and biotinylated GRGD (GRGD-bio) (SEQ ID NO: 1) were synthesized using established solid phase peptide synthesis protocols (Xiao et al. (2010) Mol Cancer Therapeutics 9:2714). Peptide-bio was designed to have biotin attached to the side chain of Lys, with two hydrophilic linkers between peptide and Lys (biotin). To modify culture surface with ligands, target culture wells in a 24-well plate were coated with 500 μL of 20 μg/mL Avidin (Thermo Fisher Scientific), and incubated for 1 hour at 37° C. Avidin coated wells were rinsed three times with DPBS and were treated with 500 μL molar equivalents (2 μM) of D-biotin (Thermo Fisher Scientific), LXW7-bio, or GRGD-bio (SEQ ID NO: 1). After 1 hour, the wells were washed three times with DPBS and blocked with 1% bovine serum albumin (BSA; Thermo Fisher Scientific) for 1 hour. After the wells were rinsed three times with DPBS, for cell attachment assay, 5×10^4 HCAECs and THP-1 monocytes suspended in the respective maintenance medium were added to the wells and incubated for 10 minutes or 16 hours at 37° C., 5% CO2, respectively. […] Five images were randomly taken from each sample and quantification of images was performed using the Image J software (NIH).

[2] = test system: platelets; assay: platelets attachment assay on ligand treated culture surfaces; type: cell-based; conditions: 16 hours
Description: as §1

[3] = test system: THP-1 monocytes; assay: flow cytometry ligand-cell binding, THP-1 monocytes; conditions: biotinylated ligand 1 μM
Experimental: (§2) FIG. 10 presents flow cytometry data from an assay of binding affinity of LXW7 and GRGD (SEQ ID NO: 1) to different cell types. Tests included EPCs/ECs from different sources, including HECFCs (A), HCAECs (B), HMVECs (C), and THP-1 monocytes (D), Platelets (E), as well as K562 cells engineered to highly express αvβ3 (αvβ3-K562, F), and αIIbβ3 (αIIbβ3-K562, G). Cells were incubated with the LXW7-bio, GRGD-bio (SEQ ID NO: 1), or D-Biotin peptide and subsequently incubated with streptavidin-phycoerythrin. Flow cytometry analysis was performed to determine the binding affinity of the ligands. Samples treated with D-biotin were used as negative controls.
(§3) LXW7-bio (1 μM) was incubated with 3×10^5 HECFCs, HCAECs, HMVECs, αvβ3-K562 and αIIbβ3-K562 cells and THP-1 monocytes and 1×10^8 platelets in binding buffer (HEPES containing 10% FBS) on ice for 30 minutes. The samples were washed three times with DPBS containing 1% FBS and incubated with 2 μg/ml of streptavidin-phycoerythrin on ice for 30 minutes and then washed with DPBS. Samples were analyzed on a BD Fortessa LSR Cell Analyzer and further data analysis and gating were performed using FlowJo software (Treestar, Inc.).

[4] = test system: HCAECs; assay: attachment assay on ligand treated culture surfaces, HCAECs; type: cell-based, human; conditions: avidin + biotinylated ligand 2 μM; 10 minutes
Description: as §1, with “respectively. After each time point the wells were washed three times with DPBS, and the adhered cells were fixed in 10% formalin (Azer Scientific) for 20 minutes. For platelets attachment assay, the PRP was centrifuged, and the platelet pellet was resuspended in 1% BSA with 2 mM CaCl2 and 1 mM MgCl2 to achieve a final concentration of 1×10^8 platelets/mL, added to the wells at a density of 5×10^7 platelets/cm^2, and incubated for 16 hours at 37° C., 5% CO2. The wells were washed three times with DPBS, and the adhered cells were fixed in 10% formalin for 20 min. The HCAECs wells were washed with DPBS again and blocked for 1 hour with 1% BSA. An additional wash was performed, and the plate was incubated overnight with mouse anti-PECAM-1 antibody (1:100; Abcam) in 1% BSA at 4° C.” for “respectively.”

[5] = test system: platelets; assay: flow cytometry ligand-cell binding, platelets; conditions: biotinylated ligand 1 μM
Experimental: as §2, §3

[6] = target: T1, integrin αIIbβ3 (Homo sapiens, UniProt P05106+P08514); assay: flow cytometry ligand-cell binding, αIIbβ3-K562 cells; conditions: K562 cells highly expressing αIIbβ3
T1 construct: expressed in transfected cells; host or cells: K562 myeloid leukemia cells (αIIbβ3-K562), provided by Dr. Jennifer Cochran (Stanford University)
Experimental: as §2
(§4) Human coronary artery endothelial cells (HCAECs) were purchased from ATCC. Human cardiac microvascular endothelial cells (HMVECs) were purchased from Lonza. THP-1 monocytes were obtained from Dr. Pamela Lein (University of California, Davis). […]
as §3, with “The samples were washed three times with DPBS containing 1% FBS and incubated with 2 μg/ml of streptavidin-phycoerythrin on ice for 30 minutes and then washed with DPBS.” left out

[7] = target: T2, integrin αvβ3 (Homo sapiens, UniProt P05106+P06756); assay: flow cytometry ligand-cell binding, αvβ3-K562 cells; conditions: K562 cells highly expressing integrin αvβ3
T2 construct: expressed in transfected cells; host or cells: K562 myeloid leukemia cells (αvβ3-K562), provided by Dr. Yoshikazu Takada
Experimental: as §2, §4
as §3, with “The samples were washed three times with DPBS containing 1% FBS and incubated with 2 μg/ml of streptavidin-phycoerythrin on ice for 30 minutes and then washed with DPBS.” left out

[8] = test system: HCAECs; assay: on-bead whole cell binding assay, HCAECs; type: cell-based, human; conditions: 2 hours incubation
Description: Human coronary artery endothelial cells (HCAECs) were purchased from ATCC. Human cardiac microvascular endothelial cells (HMVECs) were purchased from Lonza. THP-1 monocytes were obtained from Dr. Pamela Lein (University of California, Davis). The myeloid leukemia K562 cells that have been transfected with human integrin αvβ3 gene (αvβ3-K562 cells) were provided by Dr. Yoshikazu Takada and the K562 cells transfected with human integrin αIIbβ3 gene (αIIb3-K562 cells) were provided Dr. Jennifer Cochran (Stanford University)
HECFCs, HCAECs, HMVECs and THP-1 monocytes were cultured in their respective growth medium as described in Example 1. For cell bead-binding assay, 6×10^5 HECFCs, HCAECs, HMVECs or THP-1 monocytes in 2 mL of their respective culture medium were added to an ultra-low attachment 35-mm petri dish (Corning Incorporated) followed by resin beads (Lam et al. (1991) Nature 354:82). The dishes were incubated in a shaking incubator at 37° C., 5% CO2 for various time points at 40 rpm. For platelet bead-binding assay, the platelets isolated as described in Example 1 were added to an ultra-low attachment 35-mm petri dish and incubated with the resin beads in the shaking incubator as described for the cell-bead binding assy. Phase contrast images were taken at different time points using an Olympus IX81 microscope.
Three integrin-targeting ligands—LXY30 (α3β1), LLP2A (α4β1) and LXW7 (αvβ3)—were tested for their binding activities to EPCs and ECs. […] LXY30 only bound to ECs, not to EPCs. LLP2A only bound to EPCs, not to ECs. LXW7 bound well to both EPCs and ECs.

[9] = test system: HECFCs; assay: on-bead whole cell binding assay, HECFCs; type: cell-based, human; conditions: 2 hours incubation
Description: Endothelial colony forming cells (ECFCs), a subtype of EPCs also often referred to as outgrowth endothelial cells (OECs), were isolated from human umbilical cord blood as previously described (Williams et al. (2015) PloS One 10:e0123437; Ingram et al. (2004) Blood 104:2752). Human umbilical cord blood (10 U heparin/mL blood) was obtained from the UC Davis Umbilical Cord Blood Collection Program (UCBCP) and diluted 1:1 with Phosphate-buffered saline (PBS), without calcium and magnesium, pH 7.2 (Hyclone). Fifteen mL Ficoll-Paque PLUS (Amersham Biosciences) was laid at the bottom of 20 mL diluted blood and centrifuged at 2000 rpm for 30 minutes at room temperature. The hazy layer of mononuclear cells (MNCs) that seat at the interface between the Ficoll and serum was collected and dispensed into 50-mL conical tube containing 10 mL EBM-2 (Lonza) and centrifuged at 1500 rpm for 10 minutes at room temperature. The supernatant was carefully aspirated and the pellets were treated with red blood cell lysis buffer (eBioscience, Inc.) and then sorted by CD34 microbead magnetic sorting (Miltenyi Biotec GmbH) as per manufacturer's instructions. The CD34^+ cells were seeded on rat-tail collagen I (BD Biosciences Discovery) coated tissue culture plates and cultured in EGM-2 media (Lonza). After 24 h, non-adherent cells were removed and the media was changed daily to day 7 and every other day thereafter. ECFC-derived colonies appeared between day 4 and day 7 of culture with s typical endothelial cobblestone pattern. Individual colonies were isolated and expanded and allowed to grow to 80% to 90% confluency before first passage. ECFCs were used between P3 and P5 for all experiments.
HECFCs, HCAECs, HMVECs and THP-1 monocytes were cultured in their respective growth medium as described in Example 1. For cell bead-binding assay, 6×10^5 HECFCs, HCAECs, HMVECs or THP-1 monocytes in 2 mL of their respective culture medium were added to an ultra-low attachment 35-mm petri dish (Corning Incorporated) followed by resin beads (Lam et al. (1991) Nature 354:82). […]

T2 sequence (P06756 31-889 limits assumed): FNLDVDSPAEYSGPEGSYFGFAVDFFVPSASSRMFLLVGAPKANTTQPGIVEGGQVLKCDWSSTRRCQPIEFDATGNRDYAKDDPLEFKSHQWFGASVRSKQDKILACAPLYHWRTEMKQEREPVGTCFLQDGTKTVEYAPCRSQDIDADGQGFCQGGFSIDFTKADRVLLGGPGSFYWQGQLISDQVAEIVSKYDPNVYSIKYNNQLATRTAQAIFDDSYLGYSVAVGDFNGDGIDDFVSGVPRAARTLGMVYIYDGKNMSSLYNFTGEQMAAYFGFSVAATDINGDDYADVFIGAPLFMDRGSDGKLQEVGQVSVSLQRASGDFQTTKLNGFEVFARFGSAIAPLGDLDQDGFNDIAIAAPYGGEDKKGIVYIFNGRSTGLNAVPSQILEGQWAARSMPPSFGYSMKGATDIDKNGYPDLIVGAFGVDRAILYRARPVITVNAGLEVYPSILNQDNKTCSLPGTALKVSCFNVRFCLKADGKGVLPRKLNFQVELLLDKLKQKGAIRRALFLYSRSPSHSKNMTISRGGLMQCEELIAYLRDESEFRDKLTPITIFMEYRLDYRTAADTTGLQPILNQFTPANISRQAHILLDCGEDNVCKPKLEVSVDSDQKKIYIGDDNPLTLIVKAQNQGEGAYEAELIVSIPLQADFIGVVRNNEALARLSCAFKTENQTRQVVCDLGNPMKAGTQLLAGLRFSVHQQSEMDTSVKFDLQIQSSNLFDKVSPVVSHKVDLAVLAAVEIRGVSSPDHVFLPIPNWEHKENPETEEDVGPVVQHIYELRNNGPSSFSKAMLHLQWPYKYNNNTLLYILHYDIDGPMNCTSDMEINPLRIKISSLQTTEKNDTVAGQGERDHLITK
T2 sequence (P06756 891-1048 partner limits assumed): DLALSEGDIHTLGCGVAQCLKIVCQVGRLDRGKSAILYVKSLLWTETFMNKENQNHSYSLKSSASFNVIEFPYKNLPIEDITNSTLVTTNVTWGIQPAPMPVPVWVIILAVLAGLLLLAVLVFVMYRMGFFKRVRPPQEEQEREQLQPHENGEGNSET
T2 sequence (P05106 27-788): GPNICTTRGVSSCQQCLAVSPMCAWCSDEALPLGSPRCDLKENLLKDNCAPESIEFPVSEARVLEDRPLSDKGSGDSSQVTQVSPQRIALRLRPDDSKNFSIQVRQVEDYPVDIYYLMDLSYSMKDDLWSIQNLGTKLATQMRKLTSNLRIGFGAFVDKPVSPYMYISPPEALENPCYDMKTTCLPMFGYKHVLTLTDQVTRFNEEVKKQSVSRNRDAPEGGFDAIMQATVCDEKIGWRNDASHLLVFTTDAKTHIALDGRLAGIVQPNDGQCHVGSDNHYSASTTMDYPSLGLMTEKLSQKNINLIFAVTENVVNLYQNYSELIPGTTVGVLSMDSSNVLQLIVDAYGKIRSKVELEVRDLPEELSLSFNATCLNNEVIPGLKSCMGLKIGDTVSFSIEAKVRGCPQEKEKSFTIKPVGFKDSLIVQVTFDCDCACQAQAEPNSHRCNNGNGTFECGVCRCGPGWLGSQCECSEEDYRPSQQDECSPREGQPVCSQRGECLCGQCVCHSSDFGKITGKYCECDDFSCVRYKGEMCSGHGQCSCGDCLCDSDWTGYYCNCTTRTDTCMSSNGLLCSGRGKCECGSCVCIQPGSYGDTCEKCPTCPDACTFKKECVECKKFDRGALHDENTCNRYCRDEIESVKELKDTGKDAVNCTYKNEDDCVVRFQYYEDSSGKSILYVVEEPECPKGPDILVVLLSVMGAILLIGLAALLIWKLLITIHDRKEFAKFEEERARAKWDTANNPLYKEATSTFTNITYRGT

Row | binding to αIIbβ3-K562 cells by flow cytometry [6] | binding affinity to αvβ3-K562 cells by flow cytometry [7] | Substance | THP-1 monocyte attachment on ligand treated surface [1] | platelet adhesion on ligand treated surface [2] | binding to THP-1 monocytes by flow cytometry [3] | attachment of HCAECs on ligand treated surface [4] | binding affinity with platelets by flow cytometry [5] | binding of HCAECs to ligand-displaying resin beads [8] | binding of HECFCs to ligand-displaying resin beads [9]
1 | very strong binding | bound well | GRGD [reference compound] | did not support THP-1 monocyte attachment | significantly higher number of platelets to attach | did not bind to THP-1 monocytes | bound to both LXW7 and GRGD | strong binding to platelets |  | 
2 |  |  | LXY30: integrin-targeting ligand (α3β1), synthesized as in U.S. Pat. No. 9,073,974 (CDGFGPNCR; not fully specified; also: cyclised, D-residues and non-natural residues, places not given here) [reference compound] |  |  |  |  |  | bound only to HCAECs | not to HECFCs or to THP-1 monocytes
